These results are taken from patent publication US12606805B2, “Tymovirus virus and virus-like particles as nanocarriers for imaging and therapeutic agents” (priority 2017, dated 2026).

For data set [1], the target named is T1, PhMV-derived VLPs (Physalis mottle virus, UniProt P36351).
T1 construct: The coat protein gene (564 bp) was inserted into the vector pRSET-A and expressed in ClearColi BL21(DE3); made in house; host or cells: E. coli ClearColi BL21(DE3)
To be noted: for Number of molecules loaded per VLP: 5000-fold molar excess per particle; for Number of guest molecules loaded per VLP (affinity of the VLPs): infusion overnight at room temperature, molar excess 500 to 10,000 per VLP. As to the method: The VLPs were loaded with rhodamine B, fluorescein, crystal violet, MTX dihydrochloride (all Sigma-Aldrich), PS (cationic zinc ethynylphenyl porphyrin, full name 5-(4-ethynylphenyl)-10,15,20-tris)4-methylpyridin-4-ium-1-yl)porphyrin zinc(II) triiodide), or DOX hydrochloride (Indofine Chemical Company). The VLPs (1 mg/mL in KP buffer) were incubated with a molar excess of 500, 2500, 5000, or 10000 cargo molecules per particle overnight at room temperature in the dark, before purification over a 30% (w/v) sucrose cushion to remove excess reagents by ultracentrifugation at 52,000 rpm using a TLA 55 rotor (Beckman Coulter Inc.) at 4° C. for 1 h. PS-PhMV and DOX-PhMV were synthesized for further characterization using a 5000-fold molar excess.
A NanoDrop 2000 spectrophotometer (Thermo Fisher Scientific) was used to characterize the UV/visible spectra of native and modified VLPs. The dye load was determined using the protein concentration (measured using the Bradford assay), the Beer-Lambert law and the following dye-specific extinction coefficients: rhodamine B, F(553 nm)=116,000 M^−1 cm^−1; DOX, ε(496 nm)=11,500 M^−1 cm^−1; crystal violet, ε(590 nm)=87,000 M^−1 cm^−1; PS, ε(450 nm)=195,000 M^−1 cm^−1; MTX, ε(622 nm)=25,000 M^−1 cm^−1; sulfo-Cy5 NHS ester, ε(646 nm)=271,000 M^−1 cm^−1; Cy5.5-maleimide, 8(673 nm)=209,000 M^−1 cm^−1. The following molecular weights were used: PhMV=4.7×10^6 g mol^−1; rhodamine B=479.02 g mol^−1; DOX=579.98 g mol^−1; crystal violet=407.98 g mol^−1; PS=1130 g mol^−1; mitoxantrone=517.4 g mol^−1; Cy5=777.95 g mol^−1; Cy5.5=741.36 g mol^−1; Biotin NHS ester=341.38 g mol^−1; Biotin maleimide=451.54 g mol^−1.
Intact VLPs were incubated in a bathing solution containing the guest molecule at various molar excesses (500, 2500, 5000 and 10,000 molecules per VLP) in KP buffer with 10% (v/v) DMSO overnight at room temperature. After the reaction, excess guest molecules were removed by ultracentrifugation and the amount of protein and cargo was quantified by the Bradford assay and UV/visible spectroscopy, respectively. We applied the Beer-Lambert law and the specific extinction coefficient of each guest molecule to determine the number of cargo molecules per VLP (FIG. 5).

Data set [2] relates to A2780 (human ovarian cancer) cells. The data set is described as follows: MTT cell viability assay, DOX-PhMV versus DOX. It is filed as cell-based. To be noted: 24 h. On the procedure: All assays were carried out at least three times.
On the technique in general: Formazan colour is commonly taken as a measure of viable cells.

Data set [3] concerns PC-3 cells. The data set is described as follows: MTT cell viability assay after photodynamic therapy.
Method: PC-3 cells were seeded (5000 cells/100 μL RPMI 1640/well) in a 96-well plate overnight. After two PBS washes to remove unbound and dead cells, free PS, or PS-PhMV was added to the cells in triplicate at concentrations of 0.01, 0.025, 0.05, 0.1, 0.25, 0.5, 1, 2.5 and 5.0 μM PS, and incubated for 8 h. Untreated cells and cells treated with unloaded VLPs at the equivalent protein concentration to PS-PhMV particles at the highest dose of PS were also used as controls. Free particles were washed with PBS and 100 μL of fresh medium was added. The cells were then illuminated with white light for 30 min as above. In parallel, a duplicate plate was prepared and kept in the dark as a negative control. Following phototherapy, cells were incubated for another 48 h in the dark, and their viability was subsequently measured using an MTT cell proliferation assay kit (ATCC) based on the manufacturer's instructions. A Tecan Infinite 200 PRO multimode plate reader was used to measure absorbance at 570 nm, and the percent cell viability was normalized to the untreated control. All assays were carried out at least three times.
Data set [4] relates to PC-3 cells. The data set is described as follows: LIVE/DEAD assay after photodynamic therapy. The data set is classed as cell-based, human. On the procedure: PC-3 cells were seeded (20,000 cells/500 μL RPMI/well) in a 24-well plate overnight. The cells were washed twice in PBS and incubated for 8 h in triplicates with 5.0 μM PS, 5.0 μM PS-PhMV, or the corresponding concentration of unloaded VLPs ([…] or ˜0.19 mg/mL). After washing twice in PBS, 500 μL RPMI medium was added. Photodynamic therapy was then applied using a white light source (Phillips Silhouette High Output F39T5/841 HO, Alto collection, ˜10 mW cm^−2) for 30 min (18.1 J cm^−2 at 430 nm) and cells were incubated for a further 48 h in the dark. Cell viability was determined using a LIVE/DEAD assay for mammalian cells (Thermo Fisher Scientific) following the manufacturer's procedures for cell staining, and cells were observed under a Zeiss Axio Observer Z1 motorized FL inverted microscope.

T1 sequence (P36351 whole entry): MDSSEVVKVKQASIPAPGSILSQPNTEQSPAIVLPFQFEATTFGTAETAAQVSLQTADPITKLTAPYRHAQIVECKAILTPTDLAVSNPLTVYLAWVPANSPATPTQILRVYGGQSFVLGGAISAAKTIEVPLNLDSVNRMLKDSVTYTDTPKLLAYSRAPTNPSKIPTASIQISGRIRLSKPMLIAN

For `COc1cccc2c1C(=O)c1c(O)c3c(c(O)c1C2=O)C[C@@](O)(C(=O)CO)C[C@@H]3O[C@H]1C[C@H](N)[C@H](O)[C@H](C)O1` [DOX, doxorubicin], in data set [1], the “Number of molecules loaded per VLP” value is given as 600-800 molecules per VLP and the “Number of guest molecules loaded per VLP (affinity of the VLPs)” value (“Number of guest molecules loaded per VLP” below) was found to be 750 molecules per particle. Also, the “IC50 (MTT)” value in data set [2] is “equivalent”.
Take `O=C1c2c(O)ccc(O)c2C(=O)c2c(NCCNCCO)ccc(NCCNCCO)c21` [MTX, mitoxantrone]: in data set [1], the “Number of guest molecules loaded per VLP” value was 450 molecules per particle.
Broadly, the IC50 is the concentration at which inhibition is half-maximal. `C#Cc1ccc(C2=C3C=CC(=N3)C(c3cc[n+](C)cc3)=c3ccc4[n]3[Zn][n]3c2ccc3C(c2cc[n+](C)cc2)=C2C=CC(=N2)C=4c2cc[n+](C)cc2)cc1.[I-].[I-].[I-]` [PS]: the “Cytotoxicity of dark controls (MTT)” value in data set [3] (PC-3 cells kept in the dark) was “no cell killing”. The IC50 in data set [3] (read-out: IC50 (cell killing, MTT), PC-3 cells, 8 h incubation, 30 min white light illumination) was 50 nM. In data set [1], the “Number of molecules loaded per VLP” value was 160-180 molecules per VLP and the “Number of guest molecules loaded per VLP” value was roughly 200 molecules per particle. Further, the “Cell viability (LIVE/DEAD), dark controls” value in data set [4] (5.0 μM, 8 h, maintained in the dark) is given as 100%. Also, in data set [4] (5.0 μM, 8 h, white light 30 min), the “Cell viability (LIVE/DEAD), illuminated” value was determined as 0%. The “Cytotoxicity of dark controls (LIVE/DEAD)” value in data set [4] (dark controls) was “no cytotoxicity”.
Turning to `CN(C)c1ccc(C(=C2C=CC(=[N+](C)C)C=C2)c2ccc(N(C)C)cc2)cc1` [crystal violet], the “Number of guest molecules loaded per VLP” value in data set [1] is 2000 molecules per particle.
Regarding `CCN(CC)c1ccc2c(-c3ccccc3C(=O)O)c3ccc(=[N+](CC)CC)cc-3oc2c1.[Cl-]` [rhodamine B], the “Number of guest molecules loaded per VLP” value in data set [1] is given as roughly 200 molecules per particle.
